# Columns and labels:
# Z α1‐antitrypsin = Z α1‐antitrypsin (Homo sapiens, UniProt P01009, E366K); assay: Circulating monomeric Z α1‐antitrypsin in plasma of Z α1‐antitrypsin transgenic mice; type: in vivo, mouse; parameters: random insertion of the human Z α1‐antitrypsin gene; from tissue; host or cells: hemizygous Z α1-antitrypsin transgenic mice (liver, plasma)
# Procedure: GSK716 was evaluated in a transgenic mouse model with an engineered random insertion of the human Z α1‐antitrypsin gene (Teckman et al, 2004). […] Further, older mice have larger α1‐antitrypsin inclusions that may be more difficult to reverse and any changes would be more difficult to detect than in younger animals. The PK‐PD relationship of GSK716 was explored by dosing Z α1‐antitrypsin transgenic animals with 10, 30 or 100 mg/kg GSK716 three times a day. Blood and liver were harvested on day 6 at 3 h (~ C max) and 8 h (C min) after the dose for the measurement of total and free drug in both tissues. Blood was also harvested for the measurement of monomeric Z α1‐antitrypsin in plasma. Total concentrations of GSK716 were determined by LC‐MS/MS, and the free drug in both tissues was determined using equilibrium dialysis to determine free fraction in the samples, subsequently used to derive unbound concentrations. […] Both free and total drug concentrations of GSK716 at the targeted site of action in the liver were equivalent to those in blood (Table 2).
# A significant fraction of the total Z α1‐antitrypsin in the circulation is in the polymeric conformation (Tan et al, 2014). There are no antibodies that are specific for monomeric Z α1‐antitrypsin and so to directly determine its concentration, a deconvolution method was developed based on immunoassays with antibodies for either total or polymeric α1‐antitrypsin, and calibration curves with purified monomeric and polymeric Z α1‐antitrypsin. Monomeric Z α1‐antitrypsin was measured in plasma samples following 6 days of dosing, and levels were normalised to each animals’ pre‐dose control levels to account for the natural variation of Z α1‐antitrypsin between animals. […] Total drug levels and changes in Z α1‐antitrypsin following 3 days of dosing were indistinguishable from those following 6 days of dosing. There was no effect on circulating serum albumin after 5 days of dosing which provides evidence that GSK716 is specific for Z α1‐antitrypsin. Moreover, the effects are not mediated by metabolites of GSK716 as the major metabolites have much reduced or no binding to α1‐antitrypsin.
# Plasma standards of monomeric and polymeric Z α1‐antitrypsin were prepared and assayed with an antibody mix comprising a 1:160 dilution of rabbit polyclonal anti‐ α1‐antitrypsin (Abcam product 9373), 0.23 µg/ml terbium anti‐mouse, 4.5 µg/ml Alexa488 goat anti‐rabbit, 0.17 µg/ml mouse anti‐total‐ α1‐antitrypsin monoclonal 3C11 and 2 µg/ml mouse 2C1 anti‐polymeric‐ α1‐antitrypsin. After a 16‐h incubation at 20°C, TR‐FRET detection was performed on an Envision plate reader (Perkin Elmer).
# Plots of the FRET ratio (acceptor/donor signal) versus sample dilution result in bell‐shaped curves due to the hook effect. The polymer Z α1‐antitrypsin concentration was determined by comparing the peak positions of these bell‐shaped curves for plasma samples with those for polymer calibration samples. The polymer concentration in the plasma sample and the polymer calibration curve was then used to derive the contribution of polymer to the FRET signal in the total α1‐antitrypsin assay at the signal peak, enabling determination of the concentration of monomeric Z α1‐antitrypsin.
# Hemizygous female Z α1‐antitrypsin transgenic mice were 13–15 weeks of age at start of study. Drugs were administered via oral gavage three times a day at 8‐h intervals at 10 ml/Kg as a suspension in aqueous methylcellulose containing 0.5% w/v Tween 80. […]
# [1] = target: T1, plasma‐purified wild‐type M α1‐antitrypsin (Homo sapiens, UniProt P01009); assay: Competition binding assay with Alexa488‐labelled analogue of GSK716, M α1‐antitrypsin
# T1 construct: purified from the plasma of M (wild‐type) and Z α1‐antitrypsin homozygotes; from tissue; host or cells: human plasma of M (wild-type) homozygotes
# T1 sequence (P01009 25-418): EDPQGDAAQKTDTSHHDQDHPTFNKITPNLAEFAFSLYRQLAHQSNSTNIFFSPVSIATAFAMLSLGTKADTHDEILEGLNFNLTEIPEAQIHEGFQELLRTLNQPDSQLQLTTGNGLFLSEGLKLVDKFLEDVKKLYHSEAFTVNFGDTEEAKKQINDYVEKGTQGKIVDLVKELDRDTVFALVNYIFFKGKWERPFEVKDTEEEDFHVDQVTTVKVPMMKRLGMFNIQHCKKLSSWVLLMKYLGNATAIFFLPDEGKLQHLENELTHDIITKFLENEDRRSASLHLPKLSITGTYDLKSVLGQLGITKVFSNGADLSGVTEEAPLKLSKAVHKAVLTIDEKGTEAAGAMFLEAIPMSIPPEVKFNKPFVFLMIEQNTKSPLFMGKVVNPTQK
# Source text: The shape of the curves and native mass spectrometry (not shown) are consistent with a single high‐affinity compound binding site. No binding of the fluorescent derivative to polymers of Z α1‐antitrypsin was observed, indicating conformational selectivity for the monomeric protein (Fig 1D). The rate of interaction of the compound with the target was monitored through changes in intrinsic tryptophan fluorescence (Dafforn et al, 1999); this property was used to determine the second‐order association rate constants for GSK716 binding to Z (4.1 × 10^4 M^−1 s^−1) and M α1‐antitrypsin (2.1 × 10^2 M^−1 s^−1; Fig 1E and F). […] Therefore, the selectivity of the compound for Z over M α1‐antitrypsin is dominated by the difference in the rate of association rather than dissociation.
# Kinetic parameters of GSK716 binding to M, Z, S (Glu264Val) and Baghdad (Ala336Pro) (Haq et al, 2016) α1‐antitrypsin were measured by detecting intrinsic tryptophan fluorescence of the protein (excitation at 280 nm and detection of emission at 320 nm) on a stopped flow apparatus (Applied Photophysics) (Kim & Yu, 1996; Dafforn et al, 1999). […]
# Muscarinic M2 = target: T2, Muscarinic M2 (Homo sapiens, UniProt P08172); assay: Off‐target panel: Muscarinic M2 (DRX); type: cell-based
# T2 sequence (P08172 1-466): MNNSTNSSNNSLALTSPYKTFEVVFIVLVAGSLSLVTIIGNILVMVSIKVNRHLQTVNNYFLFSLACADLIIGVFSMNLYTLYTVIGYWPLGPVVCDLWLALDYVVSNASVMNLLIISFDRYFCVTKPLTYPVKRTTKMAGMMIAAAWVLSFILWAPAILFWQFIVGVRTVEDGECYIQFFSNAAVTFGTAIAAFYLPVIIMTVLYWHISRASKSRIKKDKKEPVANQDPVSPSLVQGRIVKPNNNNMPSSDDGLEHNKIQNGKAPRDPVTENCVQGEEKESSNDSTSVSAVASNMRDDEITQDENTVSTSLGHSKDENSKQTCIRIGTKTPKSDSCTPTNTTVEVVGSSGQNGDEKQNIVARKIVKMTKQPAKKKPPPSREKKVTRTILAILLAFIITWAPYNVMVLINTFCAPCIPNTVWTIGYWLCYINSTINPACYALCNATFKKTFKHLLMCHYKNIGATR
# Procedure: GSK716 selectivity and PK properties were profiled in order to investigate the suitability of GSK716 for progression into in vivo studies and the potential for taking it forward as a clinical candidate for testing in humans. Since GSK716 results in loss of inhibitory activity of α1‐antitrypsin, the effect of the compound was assessed on other closely related serpins. […] Furthermore, there were no off‐target effects in a panel of assays considered predictive of known safety liabilities that precluded further development of GSK716 (Table EV1).
# Chain of Z α1‐antitrypsin (P01009 25-418 E366K): as the sequence (P01009 25-418) above, with E342K counted along it
smiles,measurement,setting,value
CCC[C@@H](NC(=O)c1cccc2c1CC(=O)N2)[C@@H](O)c1cccc(F)c1C [GSK716],change in circulating Z α1‐antitrypsin,"Z α1‐antitrypsin; 10 mg/kg three times a day, oral, 6 days of dosing","significant, dose‐dependent increases"
same,change in circulating Z α1‐antitrypsin,"Z α1‐antitrypsin; 30 mg/kg three times a day, oral, 6 days of dosing","significant, dose‐dependent increases"
same,mean increase of monomeric Z α1‐antitrypsin in plasma over pre‐dosing baseline,"Z α1‐antitrypsin; 100 mg/kg three times a day, days 15 and 21 of dosing",sevenfold to eightfold
same,mean increase in circulating monomeric Z α1‐antitrypsin levels over pre‐dose,"Z α1‐antitrypsin; 100 mg/kg three times a day, oral, 6 days of dosing",sevenfold
same,increase in circulating levels of Z α1‐antitrypsin,"Z α1‐antitrypsin; Z α1‐antitrypsin transgenic mice, within 3 days",sevenfold
same,selectivity: affinity for Z over M α1‐antitrypsin,[1],50 fold
same,Kd,"[1]; plasma‐purified wild‐type M α1‐antitrypsin, n = 10, mean ± SD, read-out: mean pKD (converted)",0.158 µM
same,EC50,Muscarinic M2,5.01 µM
same,IC50,Muscarinic M2,> 50.1 µM
